In ChEMBL document CHEMBL3243925, “Disteroidyl ethers. 1. Synthesis and oral long-lasting uterotrophic activity of 1,3,5(10)-estratrien-17-yl enol ethers of 3-keto steroids” (1977) one finds Activity data, which are given here for 16 compounds.

Assay [1] deals with Rattus norvegicus. The assay is described as follows: Uterotrophic activity in spayed Wistar rat assessed as autopsies by measuring uterus weight at 0.1 umol, po after 2 weeks (reference value: 15.9 +/- 0.50 mg). In kind it is functional.
The subject of assay [2] is Rattus norvegicus. The experiment in a line: Uterotrophic activity in spayed Wistar rat assessed as autopsies by measuring uterus weight at 0.1 umol, po after 1 week (reference value: 15.1 +/- 0.51 mg). Format: functional.

Activity calls are given as the source filed them. No cut-off for these calls is given here.

As for `C[C@]12CC[C@@H]3c4ccc(O)cc4CC[C@H]3[C@@H]1CC[C@@H]2OC1=CC2=CC[C@@H]3[C@H](CC[C@]4(C)[C@@H](O)CC[C@@H]34)[C@H]2CC1`, the Activity in the assay with Rattus norvegicus [1] was 41.6 mg; with Rattus norvegicus [2], 59.9 mg.

On to `C[C@]12CC[C@@H]3c4ccc(O)cc4CC[C@H]3[C@@H]1CC[C@@H]2OC1=CC2=CC[C@H]3[C@@H]4CC[C@H](O)[C@@]4(C)CC[C@@H]3[C@@]2(C)CC1`, for which the Activity in the assay with Rattus norvegicus [1] worked out at 36.8 mg; in the assay with Rattus norvegicus [2] it was 50.2 mg.

Consider `CC(=O)[C@H]1CC[C@H]2[C@@H]3CC=C4C=C(O[C@H]5CC[C@H]6[C@@H]7CCc8cc(OC(=O)c9ccccc9)ccc8[C@H]7CC[C@]56C)CC[C@@H]4[C@H]3CC[C@]12C`, for which the figures for the Activity with Rattus norvegicus [1] and in the assay on Rattus norvegicus [2] were 28.5 mg and 29.1 mg, respectively.

On to `C#C[C@]1(OC(=O)C(C)OCC)CC[C@H]2[C@@H]3CC=C4C=C(O[C@H]5CC[C@H]6[C@@H]7CCc8cc(OC(C)OCC)ccc8[C@H]7CC[C@]56C)CC[C@@H]4[C@H]3CC[C@@]21C` (some centres not stated), for which the Activity with Rattus norvegicus [1] stood at 18 mg; in the assay with Rattus norvegicus [2] it was 23.6 mg.

Take `C[C@]12CCC(O[C@H]3CC[C@H]4[C@@H]5CCc6cc(O)ccc6[C@H]5CC[C@]34C)C[C@@H]1CC[C@@H]1[C@@H]2CC[C@]2(C)[C@@H](O)CC[C@@H]12` (some centres not stated): the outcome in the assay with Rattus norvegicus [1] and with Rattus norvegicus [2] was inactive.

On to `C#C[C@]1(OC(=O)CCCCCC)CC[C@H]2[C@@H]3CC=C4C=C(O[C@H]5CC[C@H]6[C@@H]7CCc8cc(OC(=O)C(C)C)ccc8[C@H]7CC[C@]56C)CC[C@@H]4[C@H]3CC[C@@]21C`, for which the Activity with Rattus norvegicus [1] is 30.4 mg; in the assay on Rattus norvegicus [2] it was 37.2 mg.

Consider `C[C@]12CC[C@@H]3c4ccc(OC5CCCC5)cc4CC[C@H]3[C@@H]1CC[C@@H]2OC1=CC2=CC[C@@H]3[C@H](CC[C@]4(C)C(=O)CC[C@@H]34)[C@H]2CC1`, for which the figures for the Activity with Rattus norvegicus [1] and with Rattus norvegicus [2] were 26.2 mg and 29.1 mg, respectively.

Take `C#C[C@]1(OC(C)=O)CC[C@H]2[C@@H]3CC=C4C=C(O[C@H]5CC[C@H]6[C@@H]7CCc8ccccc8[C@H]7CC[C@]56C)CC[C@@H]4[C@H]3CC[C@@]21C`: the result in the assay on Rattus norvegicus [1] and in the assay with Rattus norvegicus [2] was inactive.

Turning to `CC(=O)O[C@]1(C(C)=O)CC[C@H]2[C@@H]3CC=C4C=C(O[C@H]5CC[C@H]6[C@@H]7CCc8cc(OC(=O)c9ccccc9)ccc8[C@H]7CC[C@]56C)CC[C@]4(C)[C@H]3CC[C@@]21C`, the Activity in the assay with Rattus norvegicus [1] worked out at 23.3 mg; with Rattus norvegicus [2] it was 27.5 mg.

`C#C[C@@]1(OC(C)=O)CC[C@H]2[C@@H]3CC=C4C=C(O[C@H]5CC[C@H]6[C@@H]7CCc8cc(OC(=O)c9ccccc9)ccc8[C@H]7CC[C@]56C)CC[C@@H]4[C@H]3CC[C@@]21C`: the outcome in the assay on Rattus norvegicus [1] and in the assay with Rattus norvegicus [2] was inactive.

Consider `C[C@]12CC[C@H]3[C@@H](CC=C4C=C(O[C@H]5CC[C@H]6[C@@H]7CCc8cc(OC(=O)c9ccccc9)ccc8[C@H]7CC[C@]56C)CC[C@@H]43)[C@@H]1CC[C@@H]2OC(=O)c1ccccc1`, for which the Activity in the assay on Rattus norvegicus [1] was found to be 18.1 mg; in the assay on Rattus norvegicus [2], 31.3 mg.

`C#C[C@]1(OC(C)=O)CC[C@H]2[C@@H]3CC=C4C=C(O[C@H]5CC[C@H]6[C@@H]7CCc8cc(OC(C)=O)ccc8[C@H]7CC[C@]56C)CC[C@@H]4[C@H]3CC[C@@]21C`: the Activity in the assay with Rattus norvegicus [1] was found to be 25.4 mg; in the assay on Rattus norvegicus [2] it was 36.6 mg.

As for `C#C[C@]1(OC(C)=O)CC[C@H]2[C@@H]3CC=C4C=C(O[C@H]5CC[C@H]6[C@@H]7CCc8cc(O)ccc8[C@H]7CC[C@]56C)CC[C@@H]4[C@H]3CC[C@@]21C`, the Activity in the assay on Rattus norvegicus [1] turned out to be 26.7 mg; in the assay with Rattus norvegicus [2], 38.1 mg.

Take `CCC(=O)O[C@H]1CC[C@H]2[C@@H]3CC[C@@H]4CC(O[C@H]5CC[C@H]6[C@@H]7CCc8cc(OC(=O)c9ccccc9)ccc8[C@H]7CC[C@]56C)CC[C@]4(C)[C@H]3CC[C@]12C` (some centres not stated): the outcome with Rattus norvegicus [1] and in the assay with Rattus norvegicus [2] was inactive.

For the compound `CC(=O)[C@@H]1CC[C@H]2[C@@H]3CC=C4C=C(O[C@H]5CC[C@H]6[C@@H]7CCc8cc(OC(=O)c9ccccc9)ccc8[C@H]7CC[C@]56C)CC[C@@H]4[C@H]3CC[C@]12C`, the result with Rattus norvegicus [1] and in the assay on Rattus norvegicus [2] was inactive.

Turning to `C#C[C@]1(OC(=O)CCCCCC)CC[C@H]2[C@@H]3CC=C4C=C(O[C@H]5CC[C@H]6[C@@H]7CCc8cc(OC9CCCC9)ccc8[C@H]7CC[C@]56C)CC[C@@H]4[C@H]3CC[C@@]21C`, the Activity in the assay with Rattus norvegicus [1] is given as 15.2 mg; with Rattus norvegicus [2], 19.8 mg.
